Test results taken from ChEMBL document CHEMBL3580595, “Design, synthesis and biological evaluation of novel trimethylpyrazine-2-carbonyloxy-cinnamic acids as potent cardiovascular agents” (Medchemcomm, 2014).

How the values were obtained:
[1] = Anti-platelet activity in rabbit platelet-rich plasma assessed as inhibition of ADP-induced platelet aggregation at 100 uM incubated for 5 mins at 37 degC by aggregometry; format: functional; settings: Oryctolagus cuniculus
[2] = Cytoprotective activity against H2O2-induced cytotoxicity in human EAhy926 cells at 25 uM pre-incubated for 24 hrs before H2O2 challenge for 12 hrs by MTT assay; format: functional, EA.hy 926
[3] = Anti-platelet activity in rabbit platelet-rich plasma assessed as inhibition of ADP-induced platelet aggregation at 50 uM incubated for 5 mins at 37 degC by aggregometry; format: functional; settings: Oryctolagus cuniculus
[4] = Cytoprotective activity against H2O2-induced cytotoxicity in human EAhy926 cells at 100 uM pre-incubated for 24 hrs before H2O2 challenge for 12 hrs by MTT assay; format: functional, EA.hy 926
[5] = Anti-platelet activity in rabbit platelet-rich plasma assessed as inhibition of ADP-induced platelet aggregation at 25 uM incubated for 5 mins at 37 degC by aggregometry; format: functional; settings: Oryctolagus cuniculus
[6] = Cytoprotective activity against H2O2-induced cytotoxicity in human EAhy926 cells at 12.5 uM pre-incubated for 24 hrs before H2O2 challenge for 12 hrs by MTT assay; format: functional, EA.hy 926
[7] = Cytoprotective activity against H2O2-induced cytotoxicity in human EAhy926 cells at 50 uM pre-incubated for 24 hrs before H2O2 challenge for 12 hrs by MTT assay; format: functional, EA.hy 926
[8] = Anti-platelet activity in rabbit platelet-rich plasma assessed as inhibition of ADP-induced platelet aggregation incubated for 5 mins at 37 degC by aggregometry; format: functional; settings: Oryctolagus cuniculus
[9] = Cytoprotective activity against H2O2-induced cytotoxicity in human EAhy926 cells pre-incubated for 24 hrs before H2O2 challenge for 12 hrs by MTT assay; format: functional, cell-based; settings: EA.hy 926
[10] = Anti-platelet activity in rabbit platelet-rich plasma assessed as inhibition of ADP-induced platelet aggregation at 12.5 uM incubated for 5 mins at 37 degC by aggregometry; format: functional; settings: Oryctolagus cuniculus

Compound: COc1cc(/C=C/C(=O)O)cc(OC)c1OC(=O)c1nc(C)c(C)nc1C
- inhibition at 100 µM [1]: 52.1%
- Activity [2]: 24%
- inhibition at 50 µM [3]: 51.2%
- Activity [4]: 163%
- inhibition at 25 µM [5]: 17.4%
- Activity [6]: 5.7%
- Activity [7]: 96.6%
- IC50 [8]: 82.3 µM
- EC50 [9]: 34.7 µM
- inhibition at 12.5 µM [10]: 12%

Compound: O=C(O)/C=C/c1ccc(O)cc1 [COUMARIC ACID]
- inhibition at 100 µM [1]: 54.5%
- inhibition at 50 µM [3]: 53.2%
- inhibition at 25 µM [5]: 29.9%
- IC50 [8]: 74.8 µM
- inhibition at 12.5 µM [10]: 17.2%

Compound: COc1ccc(/C=C/C(=O)O)cc1OC(=O)c1nc(C)c(C)nc1C
- inhibition at 100 µM [1]: 75.2%
- Activity [2]: 128.1%
- inhibition at 50 µM [3]: 59.8%
- Activity [4]: 216.3%
- inhibition at 25 µM [5]: 53.5%
- Activity [6]: 41.3%
- Activity [7]: 159.6%
- IC50 [8]: 41.8 µM
- EC50 [9]: 8.8 µM
- inhibition at 12.5 µM [10]: 21.6%

Compound: O=C(O)/C=C/c1ccc(O)c(O)c1 [CAFFEIC ACID]
- Activity [2]: 108.5%
- Activity [4]: 155.6%
- Activity [6]: 16.7%
- Activity [7]: 149.5%
- EC50 [9]: 12.6 µM

Compound: Cc1nc(C)c(C(=O)Oc2ccc(Cl)cc2/C=C/C(=O)O)nc1C
- inhibition at 100 µM [1]: 74.5%
- Activity [2]: 26%
- inhibition at 50 µM [3]: 37%
- Activity [4]: 52.2%
- inhibition at 25 µM [5]: 38.1%
- Activity [6]: 6.9%
- Activity [7]: 23.7%
- IC50 [8]: 57.2 µM
- EC50 [9]: 95.2 µM
- inhibition at 12.5 µM [10]: 30%

Compound: CCOC(=O)/C=C/c1ccc(O)cc1 [ETHYL P-COUMARATE]
- inhibition at 100 µM [1]: 37.9%
- inhibition at 50 µM [3]: 25.5%
- inhibition at 25 µM [5]: 16.4%
- IC50 [8]: 130 µM
- inhibition at 12.5 µM [10]: 5.8%

Compound: O=C(O)/C=C/c1ccccc1O [O-COUMARIC ACID]
- inhibition at 100 µM [1]: 42.9%
- inhibition at 50 µM [3]: 30.5%
- inhibition at 25 µM [5]: 21.4%
- IC50 [8]: 116 µM
- inhibition at 12.5 µM [10]: 10.8%

Compound: Cc1nc(C)c(C(=O)Oc2cccc(/C=C/C(=O)O)c2)nc1C
- inhibition at 100 µM [1]: 8.2%
- Activity [2]: 64.3%
- inhibition at 50 µM [3]: 28%
- Activity [4]: 103%
- inhibition at 25 µM [5]: 38.5%
- Activity [6]: 61.6%
- Activity [7]: 75.3%
- IC50 [8]: 26.4 µM
- EC50 [9]: 24 µM
- inhibition at 12.5 µM [10]: 73.4%

Compound: CCOC(=O)/C=C/c1ccc(OC(=O)c2nc(C)c(C)nc2C)cc1
- inhibition at 100 µM [1]: 20.5%
- Activity [2]: 58.8%
- inhibition at 50 µM [3]: 32.2%
- Activity [4]: 96.1%
- inhibition at 25 µM [5]: 39.1%
- Activity [6]: 42.7%
- Activity [7]: 62.6%
- IC50 [8]: 24.4 µM
- EC50 [9]: 34.9 µM
- inhibition at 12.5 µM [10]: 68%

Compound: COc1cc(/C=C/C(=O)O)ccc1OC(=O)c1nc(C)c(C)nc1C
- inhibition at 100 µM [1]: 73.2%
- Activity [2]: 40.3%
- inhibition at 50 µM [3]: 46.2%
- Activity [4]: 55.4%
- inhibition at 25 µM [5]: 22.8%
- Activity [6]: 38.7%
- Activity [7]: 49.1%
- IC50 [8]: 44.6 µM
- EC50 [9]: 69.4 µM
- inhibition at 12.5 µM [10]: 60.6%

Compound: CCOC(=O)/C=C/c1ccc(O)c(OC)c1 [ETHYL FERULATE]
- inhibition at 100 µM [1]: 26.5%
- inhibition at 50 µM [3]: 17.9%
- inhibition at 25 µM [5]: 11.5%
- IC50 [8]: 193 µM
- inhibition at 12.5 µM [10]: 4%

Compound: CCOC(=O)/C=C/c1ccccc1OC(=O)c1nc(C)c(C)nc1C
- inhibition at 100 µM [1]: 42.4%
- Activity [2]: 17.8%
- inhibition at 50 µM [3]: 39%
- Activity [4]: 40.9%
- inhibition at 25 µM [5]: 16.6%
- Activity [6]: 9.6%
- Activity [7]: 36.9%
- IC50 [8]: 110 µM
- EC50 [9]: 108 µM
- inhibition at 12.5 µM [10]: 11.8%

Compound: Cc1nc(C)c(C(=O)Oc2ccc(/C=C/C(=O)O)cc2O)nc1C
- inhibition at 100 µM [1]: 53.6%
- Activity [2]: 271.1%
- inhibition at 50 µM [3]: 44.5%
- Activity [4]: 601.4%
- inhibition at 25 µM [5]: 25%
- Activity [6]: 92.8%
- Activity [7]: 284.8%
- IC50 [8]: 84.6 µM
- EC50 [9]: 2.2 µM
- inhibition at 12.5 µM [10]: 32.1%

Compound: CCOC(=O)/C=C/c1cc(OC)ccc1OC(=O)c1nc(C)c(C)nc1C
- inhibition at 100 µM [1]: 60.7%
- Activity [2]: 23.4%
- inhibition at 50 µM [3]: 72.9%
- Activity [4]: 46.2%
- inhibition at 25 µM [5]: 73.9%
- Activity [6]: 15.9%
- Activity [7]: 27.8%
- IC50 [8]: 196 µM
- EC50 [9]: 105 µM
- inhibition at 12.5 µM [10]: 70.5%

Compound: CCOC(=O)/C=C/c1cc(OC)c(OC(=O)c2nc(C)c(C)nc2C)c(OC)c1
- inhibition at 100 µM [1]: 59.5%
- Activity [2]: 20.9%
- inhibition at 50 µM [3]: 55.9%
- Activity [4]: -47%
- inhibition at 25 µM [5]: 47.2%
- Activity [6]: 96.6%
- Activity [7]: -13.6%
- IC50 [8]: 37.5 µM
- EC50 [9]: 21.4 µM
- inhibition at 12.5 µM [10]: 44%

Compound: CCOC(=O)/C=C/c1cc(Cl)ccc1OC(=O)c1nc(C)c(C)nc1C
- inhibition at 100 µM [1]: 61.7%
- Activity [2]: 62.5%
- inhibition at 50 µM [3]: 44.4%
- Activity [4]: 11%
- inhibition at 25 µM [5]: 36.9%
- Activity [6]: 64.9%
- Activity [7]: 33.7%
- IC50 [8]: 67.1 µM
- EC50 [9]: 36.1 µM
- inhibition at 12.5 µM [10]: 26.3%

Compound: COc1ccc(OC(=O)c2nc(C)c(C)nc2C)c(/C=C/C(=O)O)c1
- inhibition at 100 µM [1]: 59.8%
- Activity [2]: 45%
- inhibition at 50 µM [3]: 48.8%
- Activity [4]: 79.2%
- inhibition at 25 µM [5]: 46.5%
- Activity [6]: 21.7%
- Activity [7]: 62.9%
- IC50 [8]: 49 µM
- EC50 [9]: 48.6 µM
- inhibition at 12.5 µM [10]: 43.4%

Compound: COC(=O)[C@H](c1ccccc1Cl)N1CCc2sccc2C1 [CLOPIDOGREL]
- inhibition at 100 µM [1]: 94.5%
- inhibition at 50 µM [3]: 92.3%
- inhibition at 25 µM [5]: 77.6%
- IC50 [8]: 7.6 µM
- inhibition at 12.5 µM [10]: 86.9%

Compound: COc1ccc(/C=C/C(=O)O)cc1O [ISOFERULIC ACID]
- Activity [2]: 36.8%
- Activity [4]: 81.9%
- Activity [6]: 34.9%
- Activity [7]: 62.9%
- EC50 [9]: 29.3 µM

Compound: O=C(O)/C=C/c1ccc(Cn2ccnc2)cc1 [OZAGREL]
- inhibition at 100 µM [1]: 36.8%
- inhibition at 50 µM [3]: 25%
- inhibition at 25 µM [5]: 4.8%
- IC50 [8]: 144 µM
- inhibition at 12.5 µM [10]: 6.4%

Compound: CCOC(=O)/C=C/c1cc(OC)c(O)c(OC)c1
- Activity [2]: 24.9%
- Activity [4]: 69.1%
- Activity [6]: 4.9%
- Activity [7]: 32%
- EC50 [9]: 67.2 µM

Compound: O=C(O)CCCCC1CCSS1 (stereo not drawn) [LIPOIC ACID, ALPHA]
- Activity [2]: -12.3%
- Activity [4]: 58.1%
- Activity [6]: 30.5%
- Activity [7]: 48.7%
- EC50 [9]: 68 µM

Compound: CCOC(=O)/C=C/c1ccc(O)c(O)c1 [ETHYL CAFFEATE]
- Activity [2]: 88.4%
- Activity [4]: 146.9%
- Activity [6]: 80.4%
- Activity [7]: 134.8%
- EC50 [9]: 11.6 µM
